Data set [1] has as its system drug sensitive D6 clone of P. falciparum. The experiment in a line: SYBR Green I fluorescence-based antiplasmodial assay, D6. The following applies: Plasmodium falciparum, D6, 72 h, P. falciparum D6, 72 hours. It is filed as cell-based, Plasmodium falciparum. As to the method: (§1) Laboratory strains of P. falciparum were cultured in human erythrocytes by standard methods (Trager, W.; Jensen, J. B. Human malaria parasites in continuous culture. Science 1976, 193 (4254), 673-675. DOI: 10.1126/science.781840 from NLM Medline). The parasites were grown in culture medium with fresh human erythrocytes maintained at 2% hematocrit at 37° C. in low-oxygen conditions (5% 02, 5% CO2, 90% N2). The culture medium used was RPMI-1640 with 25 mg/L gentamicin sulfate, 45 mg/L Albumax II, 10 mM glucose, and 25 mM HEPES buffer (Smilkstein et al., Simple and inexpensive fluorescence-based technique for high-throughput antimalarial drug screening. Antimicrob Agents Chemother 2004, 48 (5), 1803-1806. DOI: 10.1128/aac.48.5.1803-1806.2004). Cultures were maintained at less than 10% parasitemia by transfer of infected cells to fresh erythrocytes and culture medium every 3 or 4 days. […]
(§2) In vitro antimalarial activity was measured using the SYBR Green I fluorescence-based assay. […] Experiments were set up in quadruplicate in 96-well plates with a 100 μL total volume per well with 2% hematocrit, 0.2% parasitemia, and drug dilutions between 0.25 and 250 nM in complete culture medium described above. The plates were incubated at 37° C. in low-oxygen conditions described previously for 72 hours, at which point 100 μL of fluorescent dye-detergent mixture (0.2 μL SYBR Green I: 1 mL lysing buffer) was added and the plates incubated in the dark at room temperature for one hour. After incubation with the fluorescent dye, a 96-well plate reader with excitation wavelength set at 497 nm and emission at 520 nm, was used to measure fluorescence of each well.
(§3) Each of the ADC derivatives was tested for antiplasmodial activity against the drug sensitive D6 clone of P. falciparum as well as one or more of the following multidrug resistant strains: Dd2 or 7G8. The method used for antiplasmodial testing is known as the SyBr Green assay and it was described by us in 2004 (Smilkstein et al., Antimicrob Agents Chemother 2004, 48 (5), 1803-1806).

Data set [2] is described as follows: HepG2 cytotoxicity assay (resazurin). It is filed as cell-based. The settings on record: human; HepG2, 24 h drug then 24 h drug-free; read-out: CC50 v HepG2. As to the method:
Final compounds were assessed for mammalian cytotoxicity using an immortalized human liver carcinoma cell line (HepG2) using previously described methods.^1 In short, final compounds were prepared in DMSO as 10 mM stock solutions. […] To 96-well flat-bottomed tissue culture plates, HepG2 cells were added at 2×10 4 density with an additional 160 μL of complete culture media per well and were incubated overnight at 37° C. to allow for adherence. Compound stocks aliquots were applied as 40 μL solutions in complete media to each well in a serial dilution series that ranged from […] as duplicates. A 10 mM DMSO stock of mefloquine was used as a positive control. […] 20 μL of resazurin (Alamar Blue) in PBS buffer was added to each well to a final concentration of 10 μM, and the plates were incubated for 3 h. Fluorescence was measured at 560 nm excitation and 590 nm emission bands using a Spectramax iD3 plate reader. Fluorescence output values were normalized to the untreated control wells and plotted against the logarithm of drug concentration.
For orientation: Alamar Blue is a resazurin reagent that responds to reducing activity.

The nature of data set [3]: Pharmacokinetic study in mice. It is filed as in vivo.
For data set [4], the system named is multi-drug resistant (Dd2) P. falciparum. Description: SYBR Green I fluorescence-based antiplasmodial assay, Dd2. It is filed as cell-based, Plasmodium falciparum. The settings on record: Plasmodium falciparum, DD2, 72 h, P. falciparum Dd2, 72 hours. The protocol: as §1, §2, §3
[5] abbreviates: mouse, plasma, PO 5 mg/kg in PEG400, male CD1 mice.
Where [6] appears, read: mouse, plasma, PO 5 mg/kg in PEG400, male CD1 mice, non-compartmental.

By IC50 is commonly meant the concentration at which inhibition is half-maximal. Read a high IC50 as a need for much substance. For orientation: CC50 means the concentration that lowers cell viability or growth by half. As a reminder, the AUC(0-inf) is total exposure, with the tail of the curve extrapolated. Low readings indicate less exposure, high ones more exposure. Usually AUC(0-t) stands for exposure summed from dosing to a finite time, without extrapolation to infinity. High values mean more exposure, low ones less exposure. What is called MRT inf is a mean duration of stay, worked out from the concentration-time curve. As usually defined, the Cmax is the highest concentration seen after dosing. For orientation: Tmax means the time from dosing to the highest level. For orientation: half-life means the time in which the quantity being followed falls by half.

Molecule `CC(C)CN1CCC(c2ccc(Nc3ccnc4cc(Cl)ccc34)cc2)CC1` [ADC-028, 7-chloro-N-(4-(1-isobutylpiperidin-4-yl)phenyl)quinolin-4-amine] registered an IC50 in data set [1] of 7.9 nM. In data set [2], the CC50 at 24 h is more than 200000 nM. Further, the MRTIast in data set [3] (PO 5 mg/kg in PEG400, male CD1 mice) came to 19.3 h. Besides, in data set [3] (setting [5]), the AUC(0-inf) came out at 3160 ng·h/mL, the AUC(0-t) came out at 2360 ng·h/mL and the MRT inf was found to be 35.6 h. In data set [3] (setting [6]), the Cmax came out at 67.7 ng/mL and the Tmax is 1 h. Also, the half-life in data set [3] (mouse, plasma, PO 5 mg/kg, male CD1 mice, Rsq_adjusted 0.829 (<0.9: might not be accurately estimated)) is 25.1 h. Besides, inhibition in data set [4] was half-maximal at 17.4 nM (IC50).

The record behind these values is patent US20240182423A1, “4-AMINOQUINOLINES FOR TREATMENT OF MULTIDRUG RESISTANT MALARIA” (United States Government as represented by the Department …, priority 2022, published 2024).
